Residues, ends and D or L forms follow the SMILES beside them. Groups on a side chain read outwards from the residue. *: point of attachment. DTPA = O=C(O)CN(CCN(CC(=O)O)CC(=O)O)CCN(CC(=O)O)CC(=O)*
How the values were obtained:
[1] = system: human melanoma cells (A375); test: Radioimmunoscintigraphy and organ radioactivity counting of human melanoma grafted on nude mice, pretargeted with anti-melanoma anti-DTPA-indium dual specificity conjugate; type: in vivo; details: for specificity of tumour binding: A375 tumour in nude mice
Experimental: Radioimmunoscintigraphy of human melanoma grafted on to nude mice with anti-melanoma anti-DTPA indium dual specificity conjugates and N-α-DTPA-tyrosyl-N-ε-DTPA-lysine labelled with indium 111.
(§1) 3.10^6 human melanoma cells (A375) are injected subcutaneously into the abdomen of nude mice. 3 to 4 weeks later the mice develop tumours of 0.5 to 2 g. The mice are then injected with 2 to 10 μg of dual specificity conjugate prepared by chemical coupling of the F(ab)'2 fragment of a […] anti-melanoma antibody (mouse monoclonal antibody IgG1, kappa) to the reduced F(ab)'2 fragment of an anti-DTPA-indium antibody (mouse monoclonal antibody IgG1, lambda) using the heterobifunctional reagent EMCS.
(§2) Twenty four hours later, mice are injected with 10 μCi of the derivative of Example 1 labelled with indium-111. Images are then produced at selected time intervals using a Sopha Medical Gammatome 2 gamma camera equipped with a medium energy high-resolution collimator or the animals are killed and the major organs and the tumour are measured for radioactivity associated with indium-111 using a gamma counter.

[2] = Tolerance to probes in animals; type: in vivo, BALB/c mice; details: 10 nanomoles, observed 16 days; compounds 1 and 2 complexed with non-radioactive indium
Experimental: Doses corresponding to 10 nanomoles, i.e. about 10,000 times more than the dose required for radioimmunoscintigraphy, of compounds 1 and 2 previously complexed with non-radioactive indium and compound 3 are administered to BALB/c mice. These mice are then observed for 16 days under normal breeding conditions.

[3] = system: human melanoma cells (A375); test: Comparison of indium-111-labelled probes in the labelling of tumours in mice (tumour/organ contrast); type: in vivo, nude mice; details: for Contrast cpm/g in the tumour/cpm/g in the organ: Heart / Contrast cpm/g in the tumour/cpm/g in the organ: Kidneys / Contrast cpm/g in the tumour/cpm/g in the organ: Liver / Contrast cpm/g in the tumour/cpm/g in the organ: Lung / Contrast cpm/g in the tumour/cpm/g in the organ: Plasma / Contrast cpm/g in the tumour/cpm/g in the organ: Spleen: 3 hours after injection of the radiolabelled probe
Experimental: as §1, §2
Comparison between compound 1 labelled with indium-111 and di-(DNP-lys)-DTPA in the labelling of tumours in mice.
Experiments are carried out as in Example 5 but the mice are given indium-111-labelled di-(DNP-lys)-DTPA (derivative 1 of French Patent Application 86.13146) instead of the derivative 1 described above. Three hours after injection of the probe, the mice are dissected and the gamma radioactivity of the major organs and tumour is counted. It is observed that the tumour accumulates a dose of radioactivity equivalent to that Obtained with the two compounds of Example 1 of the present invention. However, the elimination of the excess radioactivity is substantially more rapid with the compounds of the present invention, as shown by the following table: […]

[4] = indium-111 labelled, after dual specificity conjugate
[5] = radioactivity measured after 24 hours

## O=C(O)CN(CCN(CC(=O)O)CC(=O)O)CCN(CC(=O)O)CC(=O)NCCCC[C@H](NC(=O)[C@H](Cc1ccc(O)cc1)NC(=O)CN(CCN(CCN(CC(=O)O)CC(=O)O)CC(=O)O)CC(=O)O)C(=O)O [Example 1, N-α-DTPA-tyrosyl-N-ε-DTPA-lysine] ({DTPA}-Tyr-Lys(DTPA)-OH)
[1]
  specificity of tumour binding: specific
[1]; control without or with irrelevant conjugate
  tumour accumulation of radioactivity without dual specificity conjugate or with conjugate specific for another tumour antigen: did not accumulate significant amounts of radioactivity
[1]; indium-111 labelled, 10 μCi, 24 h after dual specificity conjugate
  time after injection at which tumours can be observed on gamma camera images: Only a few minutes
[1]; [4]
  non-specific accumulation of radioactivity: essentially limited to the kidneys
  time in which a large majority of the circulating radioactivity is eliminated: less than 24 hours
  time in which radioactivity bound to the tumour is established: within a few hours
  time radioactivity bound to the tumour remains stable: at least two days
[1]; [5]
  tumour/organ ratio (T/O), all organs except the kidneys: > 3
  tumour/organ ratio (T/O), kidneys: 0.7
[2]
  signs of toxicity: No sign of toxicity
  weight gain versus control animals: not significantly different
[3]
  Contrast cpm/g in the tumour/cpm/g in the organ: Heart: 14.9
  Contrast cpm/g in the tumour/cpm/g in the organ: Kidneys: 3.5
  Contrast cpm/g in the tumour/cpm/g in the organ: Liver: 10.8
  Contrast cpm/g in the tumour/cpm/g in the organ: Lung: 8.2
  Contrast cpm/g in the tumour/cpm/g in the organ: Plasma: 1.7
  Contrast cpm/g in the tumour/cpm/g in the organ: Spleen: 12.7

## O=C(O)CN(CCN(CC(=O)O)CC(=O)O)CCN(CC(=O)O)CC(=O)NCC(=O)NCCCC[C@H](NC(=O)CNC(=O)CN(CCN(CCN(CC(=O)O)CC(=O)O)CC(=O)O)CC(=O)O)C(=O)N[C@@H](Cc1ccc(O)cc1)C(=O)O [Example 2, N-α-N-ε-di-(DTPA-glycyl)-lysyl-tyrosine] ({DTPA}-Gly-Lys([Gly-DTPA])-Tyr-OH)
[2]
  signs of toxicity: No sign of toxicity
  weight gain versus control animals: not significantly different

## O=C(CCC(=O)NCC(=O)NCCCC[C@H](NC(=O)CNC(=O)CCC(=O)NCCc1cnc[nH]1)C(=O)N[C@@H](Cc1ccc(O)cc1)C(=O)O)NCCc1cnc[nH]1 [Example 3, N-α-N-ε-di-(histamine-succinyl-glycyl)-lysyl-tyrosine]
[2]
  signs of toxicity: No sign of toxicity
  weight gain versus control animals: not significantly different

## DTPA [indium-111-labelled DTPA, reference compound]
[1]
  specificity of tumour binding: little specific binding is observed
[1]; mouse, in vivo
  elimination/excretion of radioactivity: excreted very rapidly

## di-(DNP-lys)-DTPA [derivative of the prior art]
[3]
  Contrast cpm/g in the tumour/cpm/g in the organ: Heart: 2.1
  Contrast cpm/g in the tumour/cpm/g in the organ: Kidneys: 1.0
  Contrast cpm/g in the tumour/cpm/g in the organ: Liver: 1.3
  Contrast cpm/g in the tumour/cpm/g in the organ: Lung: 0.9
  Contrast cpm/g in the tumour/cpm/g in the organ: Plasma: 0.2
  Contrast cpm/g in the tumour/cpm/g in the organ: Spleen: 1.8
[3]; 3 hours after injection, indium-111 labelled
  dose of radioactivity accumulated by the tumour compared with Example 1: equivalent

From US5274076A, “Hydrophilic derivatives, their application to diagnosis and to therapeutics, diagnostic or therapeutic kits and immunological reagents” (Immunotech Partners, priority 1989, dated 1993)
